Data from patent publication US11649255B2, “Indazoles as hematopoietic progenitor kinase 1 (HPK1) inhibitors and methods using same” (1st Biotherapeutics, Inc., priority 2020, dated 2023).

Biological target: recombinant human HPK1 (Homo sapiens (Human), UniProt Q92918)
Experiment: HPK1 kinase assay (ADP-Glo)
Format: biochemical
Conditions: 25 μM ATP, MBP substrate
Procedure, shortened: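 Activity was read as ADP formed, detected by ADP-Glo luminescence after the reaction of 5 ng recombinant human HPK1 with MBP and ATP (stocks 0.5 μg/μl and 25 μM) for 40 min at 30 °C. Buffer was Tris pH 7.5 with MgCl2, BSA and DTT, with compound in 0.5% DMSO. IC50 came from inhibition curves.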

Sequence of recombinant human HPK1 (Q92918 whole entry): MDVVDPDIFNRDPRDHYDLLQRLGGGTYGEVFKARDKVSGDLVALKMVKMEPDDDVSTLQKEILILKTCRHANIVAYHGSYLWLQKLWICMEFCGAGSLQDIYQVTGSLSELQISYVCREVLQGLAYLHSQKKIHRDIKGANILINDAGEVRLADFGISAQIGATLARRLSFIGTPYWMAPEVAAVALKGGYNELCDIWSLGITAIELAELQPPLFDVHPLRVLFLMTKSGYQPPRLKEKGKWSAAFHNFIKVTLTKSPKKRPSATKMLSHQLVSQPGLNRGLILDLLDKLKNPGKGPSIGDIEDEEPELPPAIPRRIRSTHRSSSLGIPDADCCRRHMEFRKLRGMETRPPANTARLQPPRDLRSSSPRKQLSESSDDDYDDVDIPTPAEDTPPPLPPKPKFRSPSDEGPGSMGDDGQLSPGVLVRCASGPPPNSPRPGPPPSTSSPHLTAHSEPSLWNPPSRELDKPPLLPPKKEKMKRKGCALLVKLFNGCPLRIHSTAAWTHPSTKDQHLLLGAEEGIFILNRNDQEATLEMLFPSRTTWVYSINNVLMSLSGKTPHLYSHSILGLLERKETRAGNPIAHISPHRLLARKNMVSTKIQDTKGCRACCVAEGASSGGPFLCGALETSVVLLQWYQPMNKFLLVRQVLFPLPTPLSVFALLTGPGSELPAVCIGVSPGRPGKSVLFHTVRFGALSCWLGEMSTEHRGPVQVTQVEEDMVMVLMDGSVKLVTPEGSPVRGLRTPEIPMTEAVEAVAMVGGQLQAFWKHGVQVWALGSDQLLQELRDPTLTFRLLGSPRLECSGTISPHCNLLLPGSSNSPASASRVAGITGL

| IC50 | SMILES |
| --- | --- |
| < 0.1 µM | CC1(F)CN(c2c(F)c(Cl)c(-c3ccn4nc(NC(=O)[C@@H]5C[C@@H]5F)cc4c3)c3cn[nH]c23)C1 [Example 632, (1S,2S)-N-(5-(5-chloro-6-fluoro-7-(3-fluoro-3-methylazetidin-1-yl)-1H-indazol-4-yl)pyrazolo[1,5-a]pyridin-2-yl)-2-fluorocyclopropane-1-carboxamide] |
| < 0.1 µM | N#C/C=C/c1c(F)c(Cl)c(-c2ccn3nc(NC(=O)[C@@H]4C[C@@H]4F)cc3c2)c2cn[nH]c12 [Example 633, (1S,2S)-N-(5-(5-chloro-7-((E)-2-cyanovinyl)-6-fluoro-1H-indazol-4-yl)pyrazolo[1,5-a]pyridin-2-yl)-2-fluorocyclopropane-1-carboxamide] |
| < 0.1 µM | O=C(Nc1cc2cc(-c3c(Cl)c(F)c(N4CC[S+]([O-])CC4)c4[nH]ncc34)ccn2n1)[C@@H]1C[C@@H]1F [Example 635, (1S,2S)-N-(5-(5-chloro-6-fluoro-7-(1-oxidothiomorpholino)-1H-indazol-4-yl)pyrazolo[1,5-a]pyridin-2-yl)-2-fluorocyclopropane-1-carboxamide] |
| < 0.1 µM | N#CCNc1c(F)c(Cl)c(-c2ccn3nc(NC(=O)[C@@H]4C[C@@H]4F)cc3c2)c2cn[nH]c12 [Example 636, (1S,2S)-N-(5-(5-chloro-7-((cyanomethyl)amino)-6-fluoro-1H-indazol-4-yl)pyrazolo[1,5-a]pyridin-2-yl)-2-fluorocyclopropane-1-carboxamide] |
| < 0.1 µM | C=C(C)c1c(F)c(Cl)c(-c2ccn3nc(NC(=O)[C@@H]4C[C@@H]4F)cc3c2)c2cn[nH]c12 [Example 639, (1S,2S)-N-(5-(5-chloro-6-fluoro-7-(prop-1-en-2-yl)-1H-indazol-4-yl)pyrazolo[1,5-a]pyridin-2-yl)-2-fluorocyclopropane-1-carboxamide] |
| < 0.1 µM | CC(C#N)Nc1c(F)c(Cl)c(-c2ccn3nc(NC(=O)[C@@H]4C[C@@H]4F)cc3c2)c2cn[nH]c12 (stereo partly drawn) [Example 641, (1S,2S)-N-(5-(5-chloro-7-((1-cyanoethyl)amino)-6-fluoro-1H-indazol-4-yl)pyrazolo[1,5-a]pyridin-2-yl)-2-fluorocyclopropane-1-carboxamide] |
| < 0.1 µM | O=C(Nc1cc2cc(-c3c(Cl)c(F)c(N4CCC(F)C4)c4[nH]ncc34)ccn2n1)[C@@H]1C[C@@H]1F (stereo partly drawn) [Example 642, (1S,2S)-N-(5-(5-chloro-6-fluoro-7-(3-fluoropyrrolidin-1-yl)-1H-indazol-4-yl)pyrazolo[1,5-a]pyridin-2-yl)-2-fluorocyclopropane-1-carboxamide] |
| 0.101 to 0.5 µM | CC(C#N)N(C(=O)OCc1ccccc1)c1c(F)c(Cl)c(-c2ccn3nc(NC(=O)[C@@H]4C[C@@H]4F)cc3c2)c2cn[nH]c12 (stereo partly drawn) [Example 643, benzyl (5-chloro-6-fluoro-4-(2-((1S,2S)-2-fluorocyclopropane-1-carboxamido)pyrazolo[1,5-a]pyridin-5-yl)-1H-indazol-7-yl)(1-cyanoethyl)carbamate] |
| < 0.1 µM | CSc1c(F)c(Cl)c(-c2ccn3nc(NC(=O)O[C@@H]4COC[C@H]4C)cc3c2)c2cn[nH]c12 [Example 645, (3S,4R)-4-methyltetrahydrofuran-3-yl (5-(5-chloro-6-fluoro-7-(methylthio)-1H-indazol-4-yl)pyrazolo[1,5-a]pyridin-2-yl)carbamate] |
| < 0.1 µM | CN(C)c1c(F)c(Cl)c(-c2ccn3nc(NC(=O)NC4CC4)cc3c2)c2cn[nH]c12 [Example 647, 1-(5-(5-chloro-7-(dimethylamino)-6-fluoro-1H-indazol-4-yl)pyrazolo[1,5-a]pyridin-2-yl)-3-cyclopropylurea] |
| < 0.1 µM | C[C@@H]1[C@H](C(=O)Nc2cc3cc(-c4c(Cl)c(F)c(N(C)C)c5[nH]ncc45)ccn3n2)[C@H]1c1cnn(C)c1 [Example 648, (1S,2S,3S)-N-(5-(5-chloro-7-(dimethylamino)-6-fluoro-1H-indazol-4-yl)pyrazolo[1,5-a]pyridin-2-yl)-2-methyl-3-(1-methyl-1H-pyrazol-4-yl)cyclopropane-1-carboxamide] |

Continued, compound first:

| SMILES | IC50 |
| --- | --- |
| O=C(Nc1cc2cc(-c3c(Cl)c(F)c(CF)c4[nH]ncc34)ccn2n1)[C@@H]1C[C@@H]1F [Example 634, (1S,2S)-N-(5-(5-chloro-6-fluoro-7-(fluoromethyl)-1H-indazol-4-yl)pyrazolo[1,5-a]pyridin-2-yl)-2-fluorocyclopropane-1-carboxamide] | < 0.1 µM |
| O=C(Nc1cc2cc(-c3c(Cl)c(F)c(-n4cccc4)c4[nH]ncc34)ccn2n1)[C@@H]1C[C@@H]1F [Example 637, (1S,2S)-N-(5-(5-chloro-6-fluoro-7-(1H-pyrrol-1-yl)-1H-indazol-4-yl)pyrazolo[1,5-a]pyridin-2-yl)-2-fluorocyclopropane-1-carboxamide] | < 0.1 µM |
| CC(C)(C#N)Nc1c(F)c(Cl)c(-c2ccn3nc(NC(=O)[C@@H]4C[C@@H]4F)cc3c2)c2cn[nH]c12 [Example 638, (1S,2S)-N-(5-(5-chloro-7-((2-cyanopropan-2-yl)amino)-6-fluoro-1H-indazol-4-yl)pyrazolo[1,5-a]pyridin-2-yl)-2-fluorocyclopropane-1-carboxamide] | < 0.1 µM |
| CC(C)c1c(F)c(Cl)c(-c2ccn3nc(NC(=O)[C@@H]4C[C@@H]4F)cc3c2)c2cn[nH]c12 [Example 640, (1S,2S)-N-(5-(5-chloro-6-fluoro-7-isopropyl-1H-indazol-4-yl)pyrazolo[1,5-a]pyridin-2-yl)-2-fluorocyclopropane-1-carboxamide] | < 0.1 µM |
| Cc1cccn1-c1c(F)c(Cl)c(-c2ccn3nc(NC(=O)[C@@H]4C[C@@H]4F)cc3c2)c2cn[nH]c12 [Example 644, (1S,2S)-N-(5-(5-chloro-6-fluoro-7-(2-methyl-1H-pyrrol-1-yl)-1H-indazol-4-yl)pyrazolo[1,5-a]pyridin-2-yl)-2-fluorocyclopropane-1-carboxamide] | < 0.1 µM |
| C[C@H]1[C@H](C(=O)Nc2cc3cc(-c4c(Cl)c(F)c(N(C)C)c5[nH]ncc45)ccn3n2)[C@H]1c1cnn(C)c1 [Example 646, (1S,2R,3S)-N-(5-(5-chloro-7-(dimethylamino)-6-fluoro-1H-indazol-4-yl)pyrazolo[1,5-a]pyridin-2-yl)-2-methyl-3-(1-methyl-1H-pyrazol-4-yl)cyclopropane-1-carboxamide] | < 0.1 µM |
| CN(C)C(=O)c1ccn(-c2c(F)c(Cl)c(-c3ccn4nc(NC(=O)[C@@H]5C[C@@H]5F)cc4c3)c3cn[nH]c23)c1 [Example 649, 1-(5-chloro-6-fluoro-4-(2-((1S,2S)-2-fluorocyclopropane-1-carboxamido)pyrazolo[1,5-a]pyridin-5-yl)-1H-indazol-7-yl)-N,N-dimethyl-1H-pyrrole-3-carboxamide] | < 0.1 µM |
| CC(C)Oc1c(F)c(Cl)c(-c2ccn3nc(NC(=O)[C@@H]4C[C@@H]4F)cc3c2)c2cn[nH]c12 [Example 650, (1S,2S)-N-(5-(5-chloro-6-fluoro-7-isopropoxy-1H-indazol-4-yl)pyrazolo[1,5-a]pyridin-2-yl)-2-fluorocyclopropane-1-carboxamide] | < 0.1 µM |
| O=C(Nc1cc2cc(-c3c(Cl)c(F)c(C4CCCC4)c4[nH]ncc34)ccn2n1)[C@@H]1C[C@@H]1F [Example 651, (1S,2S)-N-(5-(5-chloro-7-cyclopentyl-6-fluoro-1H-indazol-4-yl)pyrazolo[1,5-a]pyridin-2-yl)-2-fluorocyclopropane-1-carboxamide] | < 0.1 µM |
